Reference: PMC9283466, “In silico identification of two peptides with antibacterial activity against multidrug-resistant Staphylococcus aureus” (NPJ Biofilms and Microbiomes, 2022)
Converted amounts (≈) assume the structure as drawn. Read-outs that look alike come from different tables or passages of the source.

Key:
S. aureus RN4220 = assay: MIC, broth microdilution; type: cell-based, Staphylococcus aureus; settings: sensitive
Description: (§1) To determine the antimicrobial activity of the new antimicrobial peptides, HG2 and HG4, their minimum inhibitory concentrations (MICs) were determined by broth microdilution method[51] in cation adjusted Mueller Hinton broth (MHB) following the International Organisation for Standardisation (ISO) 20776-1 standard for MIC testing using a final bacterial inoculum of 5 × 10^5 CFU/ml[52]. […] The peptides dissolved in sterile distilled water were added to bacteria culture and incubated overnight at appropriate conditions. The MICs of the peptides and comparator antibiotics were recorded after 18–24 h. The minimum bactericidal concentrations (MBCs) were also determined and were taken as the lowest concentration of the antimicrobial that prevented the growth of bacterial cells after the subculture of cells (from MIC treatment) onto antibiotic-free media.

K. pneumoniae 518842 = assay: microbe, parasite or virus in culture; type: cell-based, Klebsiella pneumoniae
Description: as §1

K. pneumoniae 526903 = assay: microbe, parasite or virus in culture; type: cell-based, Klebsiella pneumoniae; settings: K. pneumoniae 526903, sensitive
Description: as §1

[1] = tested on: K. pneumoniae ATCC 700603; assay: microbe, parasite or virus in culture; type: cell-based, Klebsiella pneumoniae; settings: K. pneumoniae ATCC 700603, SHV-18
Description: as §1

K. pneumoniae NCTC 13442 = assay: microbe, parasite or virus in culture; type: cell-based, Klebsiella pneumoniae; settings: K. pneumoniae NCTC 13442, OXA-48
Description: as §1

[2] = tested on: A. baumannii (IMI, MER resistant; strain ID not given); assay: microbe, parasite or virus in culture; type: cell-based, Acinetobacter baumannii; settings: A. baumannii, no strain ID, MER
Description: as §1

A. baumannii 515722 = assay: microbe, parasite or virus in culture; type: cell-based, Acinetobacter baumannii; settings: A. baumannii 515722, sensitive
Description: as §1

A. baumannii 515785 = assay: microbe, parasite or virus in culture; type: cell-based, Acinetobacter baumannii
Description: as §1

A. baumannii 515908 = assay: microbe, parasite or virus in culture; type: cell-based, Acinetobacter baumannii; settings: A. baumannii 515908, sensitive
Description: as §1

B. cereus = assay: microbe, parasite or virus in culture; type: cell-based, Bacillus cereus; settings: Bacillus cereus; B. cereus; read-out: MIC
Description: as §1

[3] = tested on: P. aeruginosa (CF) AMT0060; assay: microbe, parasite or virus in culture; type: cell-based, Pseudomonas aeruginosa; settings: P. aeruginosa (CF) AMT0060
Description: as §1

P. aeruginosa (CF) C3719 = assay: microbe, parasite or virus in culture; type: cell-based, Pseudomonas aeruginosa; settings: P. aeruginosa (CF) C3719
Description: as §1

[4] = tested on: P. aeruginosa (CF) LES400; assay: microbe, parasite or virus in culture; type: cell-based, Pseudomonas aeruginosa; settings: P. aeruginosa (CF) LES400
Description: as §1

P. aeruginosa PA01 = assay: microbe, parasite or virus in culture; type: cell-based, Pseudomonas aeruginosa; settings: P. aeruginosa PA01
Description: as §1

P. aeruginosa = assay: microbe, parasite or virus in culture; type: cell-based, Pseudomonas aeruginosa; settings: P. aeruginosa, Supplementary Table 5
Description: as §1

Sal. typhimurium SL1344 = assay: microbe, parasite or virus in culture; type: cell-based, Salmonella enterica serovar Typhimurium; settings: Sal. typhimurium SL1344
Description: as §1

Sal. typhimurium = assay: microbe, parasite or virus in culture; type: cell-based, Salmonella enterica serovar Typhimurium; settings: Sal. typhimurium, Supplementary Table 5
Description: as §1

E. coli K12 = assay: microbe, parasite or virus in culture; type: cell-based, Escherichia coli; settings: E. coli K12
Description: as §1

E. coli = assay: microbe, parasite or virus in culture; type: cell-based, Escherichia coli
Description: as §1

EMRA-15 = assay: microbe, parasite or virus in culture; type: cell-based, Staphylococcus aureus; settings: EMRA-15, Supplementary Table 5
Description: as §1

S. aureus EMRSA-15 = assay: microbe, parasite or virus in culture; type: cell-based, Staphylococcus aureus; settings: S. aureus EMRSA-15, resistances MRSA, Cip
Description: as §1

S. aureus = assay: microbe, parasite or virus in culture; type: cell-based, Staphylococcus aureus
Description: as §1

Ent. faecalis JH2-2 = assay: microbe, parasite or virus in culture; type: cell-based, Enterococcus faecalis; settings: Ent. faecalis JH2-2
Description: as §1

Ent. faecalis = assay: microbe, parasite or virus in culture; type: cell-based, Enterococcus faecalis; settings: Ent. faecalis, Supplementary Table 5
Description: as §1

[5] = tested on: L. monocytogenes NCTC 11994; assay: microbe, parasite or virus in culture; type: cell-based, Listeria monocytogenes; settings: L. monocytogenes NCTC 11994
Description: as §1

List. monocytogenes = assay: microbe, parasite or virus in culture; type: cell-based, Listeria monocytogenes; settings: List. monocytogenes, Supplementary Table 5
Description: as §1

[6] = tested on: LPS-driven NF-kB activation, eLUCidate Raw 264.7 NF-kB reporter cell line; assay: Anti-inflammatory activity, NF-kB luciferase reporter; type: cell-based, murine; settings: 10 ng/ml LPS from E. coli, 6 h
Description: (§2) The inhibitory activity of HG2, HG4 and comparator compounds against LPS and LTA was assessed using eLUCidate™ Raw 264.7 NF-kB reporter cell line (AMSBIO) as previously described. The eLUCidate NF-kB reporter cell line is a stably transfected Raw 264.7 cell line which expresses the Renilla luciferase reporter gene under the transcriptional control of the NF-kB response element, a key transcription factor involved in immune and inflammatory responses. This reporter cell line has been used to measure the induction of various toll-like receptors (TLR) by ligands, including LPS and LTA, therefore providing an effective way to evaluate inhibitors of their activations. Briefly, cells were grown and maintained following the manufacturer’s instructions in Dulbecco’s modified essential medium (DMEM) supplemented with 10% fetal calf serum (FCS), 1% L-glutamine, 1% antibiotics (Invitrogen) and containing 3 µg/ml of puromycin (Sigma-Aldrich, UK). To test the inhibitory activity of HG2 and HG4 on LPS or LTA-driven NF-kB activation, eLUCidate™ Raw 264.7 cells grown on 75 cm^2 flasks were detached using trypsin-EDTA solution (Thermofisher, UK) and seeded into 96-well cell culture plates (Greiner Bio-one, UK) at ~25,000 cells per well (counted using Mallasez’s chamber). The next day, wells were emptied, and cells were exposed to optimal concentrations of LPS or LTA determined from preliminary experiments, (i.e. 10 ng/ml of LPS from E. coli or 10 µg/ml of LTA from S. aureus (Invivogen, UK)) in the presence of increasing concentrations of HG2 or HG4 (from 0 to 500 µg/ml, serial 1:2 dilutions). Pyrrolidine dithiocarbamate (PDTC, 100 µM) and polymyxin B (PMB, 100 µM) (Sigma-Aldrich, UK) were used as positive controls based on their well-known activity as anti-inflammatory molecules and blockers/neutralisers of LPS and LTA, respectively. Importantly, all steps were performed using non-pyrogenic plastics and RNase/DNase molecular biology tips to limit the risk of the presence of a trace of LPS/LTA. After 6 h incubation at 37 °C and 5% CO2, wells were emptied, and the cells were treated with 70 µl of ice-cold PBS containing 1% Triton X-100. After 10 min incubation on ice under orbital shaking at 200 rpm, 50 µL of cell lysates were collected and transferred into white 96-well luminescence plates (Dominique Dutscher) already containing 100 µL of Renilla luciferase substrate (Yelen, France). Luminescence signals of the wells were immediately measured using a microplate reader (Biotek Synergy Mx, UK). The luminescence values were expressed as a percentage of control inflammation corresponding to values obtained after treatment with LPS or LTA in the absence of an inhibitor. The IC50 values of PDTC, PMB, HG2 or HG4 on LPS or LTA-mediated inflammation (i.e. the concentration of molecule causing a reduction of 50% of the luciferase’s induction caused by LPS or LTA) were calculated using GraphPad® Prism 7 software.

[7] = tested on: LTA-driven NF-kB activation, eLUCidate Raw 264.7 NF-kB reporter cell line; assay: as above; type: cell-based, murine; settings: 10 µg/ml LTA from S. aureus, 6 h
Description: as §2

[8] = Staphylococcus aureus, read-out: MIC
[9] = Acinetobacter baumannii, read-out: MIC
[10] = Pseudomonas aeruginosa, read-out: MIC
[11] = Staphylococcus aureus, read-out: Minimum inhibitory Concentrations MICs

In the case of `O=C(O)c1cn(C2CC2)c2cc(N3CCNCC3)c(F)cc2c1=O` [Cip, ciprofloxacin, reference compound], the MIC (S. aureus RN4220; [8]) is reported as greater than 256 µg/mL, the MIC (K. pneumoniae 518842; Klebsiella pneumoniae, 518842) is reported as greater than 128 µg/mL and the MIC (K. pneumoniae 526903; Klebsiella pneumoniae, read-out: MIC) is reported as 0.03 µg/mL (≈ 0.0905 µM). The MIC ([1]; Klebsiella pneumoniae, ATCC700603, read-out: MIC) was 0.25 µg/mL (≈ 0.754 µM), the MIC (K. pneumoniae NCTC 13442; Klebsiella pneumoniae, NCTC13442, read-out: MIC) was 64 µg/mL (≈ 193 µM) and the MIC [2, 9] was 16 µg/mL (≈ 48.3 µM). It also gave an MIC (A. baumannii 515722; [9]) of 16 µg/mL (≈ 48.3 µM), an MIC (A. baumannii 515785; Acinetobacter baumannii, 515785) greater than 128 µg/mL and an MIC (A. baumannii 515908; [9]) of 16 µg/mL (≈ 48.3 µM). It also gave an MIC (B. cereus) of 0.015 µg/mL (≈ 0.0453 µM), an MIC [3, 10] of 0.12 µg/mL (≈ 0.362 µM) and an MIC (P. aeruginosa (CF) C3719; [10]) of 4 µg/mL (≈ 12.1 µM). For the same compound, the MIC [4, 10] was 4 µg/mL (≈ 12.1 µM), the MIC (P. aeruginosa PA01; [10]) was 0.5 µg/mL (≈ 1.51 µM) and the MIC (P. aeruginosa; Pseudomonas aeruginosa, read-out: Minimum inhibitory Concentrations MICs) was 0.49 µg/mL (≈ 1.48 µM). The MIC (Sal. typhimurium SL1344; Salmonella enterica, read-out: MIC) was 0.12 µg/mL (≈ 0.362 µM), the MIC (Sal. typhimurium; Salmonella enterica, read-out: Minimum inhibitory Concentrations MICs) was 0.12 µg/mL (≈ 0.362 µM) and the MIC (E. coli K12; Escherichia coli, read-out: MIC) was 0.06 µg/mL (≈ 0.181 µM). It also gave an MIC (E. coli; Escherichia coli, read-out: Minimum inhibitory Concentrations MICs) of 0.06 µg/mL (≈ 0.181 µM), an MIC (EMRA-15; [11]) greater than 250 µg/mL and an MIC (S. aureus EMRSA-15; [8]) greater than 256 µg/mL. For the same compound, the MIC (S. aureus; [11]) was greater than 250 µg/mL, the MIC (Ent. faecalis JH2-2; Enterococcus faecalis, JH22, read-out: MIC) was 64 µg/mL (≈ 193 µM) and the MIC (Ent. faecalis; Enterococcus faecalis, read-out: Minimum inhibitory Concentrations MICs) was 62.5 µg/mL (≈ 189 µM). The MIC ([5]; Listeria monocytogenes, NCTC11994, read-out: MIC) was 64 µg/mL (≈ 193 µM) and the MIC (List. monocytogenes; Listeria monocytogenes, read-out: Minimum inhibitory Concentrations MICs) was 62.5 µg/mL (≈ 189 µM).
With polymyxin B [reference compound] the MIC (S. aureus RN4220) was 256 µg/mL, the MIC (K. pneumoniae 518842; K. pneumoniae 518842, CTX-M) was 2 µg/mL and the MIC (K. pneumoniae 526903) was 4 µg/mL. For the same compound, the MIC [1] was 2 µg/mL, the MIC (K. pneumoniae NCTC 13442) was 8 µg/mL and the MIC [2] was 0.25 µg/mL. It also gave an MIC (A. baumannii 515722) of 0.25 µg/mL, an MIC (A. baumannii 515785; A. baumannii 515785, OXA-23, OXA-50) of 0.5 µg/mL and an MIC (A. baumannii 515908) of 0.5 µg/mL. For the same compound, the MIC [3] was 0.5 µg/mL, the MIC (P. aeruginosa (CF) C3719) was 1 µg/mL and the MIC [4] was 1 µg/mL. For the same compound, the MIC (P. aeruginosa PA01) was 2 µg/mL, the “Minimum inhibitory Concentrations MICs” value (P. aeruginosa) was 1.95 µg/mL and the MIC (Sal. typhimurium SL1344) was 2 µg/mL. The “Minimum inhibitory Concentrations MICs” value (Sal. typhimurium) was 1.95 µg/mL, the MIC (E. coli K12) was 2 µg/mL and the “Minimum inhibitory Concentrations MICs” value (E. coli; E. coli, Supplementary Table 5) was 1.95 µg/mL. The “Minimum inhibitory Concentrations MICs” value (EMRA-15) was 250 µg/mL, the MIC (S. aureus EMRSA-15) was 256 µg/mL and the “Minimum inhibitory Concentrations MICs” value (S. aureus; S. aureus, Supplementary Table 5) was 250 µg/mL. For the same compound, the MIC (Ent. faecalis JH2-2) was 32 µg/mL, the “Minimum inhibitory Concentrations MICs” value (Ent. faecalis) was 31.25 µg/mL and the MIC [5] was 64 µg/mL. The “Minimum inhibitory Concentrations MICs” value (List. monocytogenes) was 62.5 µg/mL, the “IC50, LPS-mediated inflammation” value [6] was 62.26 ± 4.01 µg/mL and the “IC50, LTA-mediated inflammation” value [7] was 61.34 ± 3.47 µg/mL.
